PubChem BioAssay (NCI)
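Briefly, cells in 96-well plates were exposed to five compound concentrations for 48 h, and endpoints were estimated by linear interpolation. Abbreviation: GI50, concentration required for 50% inhibition of growth. Definition used: TGI = concentration required for complete inhibition of growth.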

Experiments:
Test in all cases: NCI anticancer screen, dose series, 48 h
SK-OV-3 ovarian = tested on: SK-OV-3 ovarian
OVCAR-3 ovarian = tested on: OVCAR-3 ovarian
786-0 renal = tested on: 786-0 renal
OVCAR-4 ovarian = tested on: OVCAR-4 ovarian
DU-145 prostate = tested on: DU-145 prostate
BT-549 breast = tested on: BT-549 breast
U251 CNS = tested on: U251 CNS
SK-MEL-5 melanoma = tested on: SK-MEL-5 melanoma
SK-MEL-28 melanoma = tested on: SK-MEL-28 melanoma
LOX IMVI melanoma = tested on: LOX IMVI melanoma

| SMILES | TGI (SK-OV-3 ovarian) [µM] | TGI (OVCAR-3 ovarian) [µM] | TGI (786-0 renal) [µM] | TGI (OVCAR-4 ovarian) [µM] | TGI (DU-145 prostate) [µM] | TGI (BT-549 breast) [µM] | TGI (U251 CNS) [µM] | TGI (SK-MEL-5 melanoma) [µM] | TGI (SK-MEL-28 melanoma) [µM] | GI50 (SK-OV-3 ovarian) [µM] | GI50 (LOX IMVI melanoma) [µM] | TGI (LOX IMVI melanoma) [µM] | GI50 (OVCAR-3 ovarian) [µM] | GI50 (786-0 renal) [µM] | GI50 (OVCAR-4 ovarian) [µM] | GI50 (DU-145 prostate) [µM] | GI50 (BT-549 breast) [µM] | GI50 (U251 CNS) [µM] | GI50 (SK-MEL-5 melanoma) [µM] | GI50 (SK-MEL-28 melanoma) [µM] |
| --- | --- | --- | --- | --- | --- | --- | --- | --- | --- | --- | --- | --- | --- | --- | --- | --- | --- | --- | --- | --- |
| Cc1ccc(S(=O)(=O)N2CCSCCN(S(=O)(=O)c3ccc(C)cc3)CCN(S(=O)(=O)c3ccc(C)cc3)CC2)cc1 | 86.7 | > 100 | 73.9 | > 100 | > 100 | 70.5 | 90.1 | > 100 | > 100 |  |  |  |  |  |  |  |  |  |  |  |
| C[C@H](Nc1ncnc2nc[nH]c12)c1cc2ccc(F)cc2nc1-c1ccccn1 | > 100 | > 100 | > 100 | > 100 | > 100 | > 100 | > 100 | > 100 | > 100 | 48.3 | > 86.2 | > 100 | 34.3 | 14.3 | > 100 | > 100 | 36.2 | > 100 | 91.2 | > 100 |
| CC(=O)c1cc(C(=O)c2ccc3c(c2)Sc2ccccc2N3)c2c(C)cc(C)cn12 |  | 0.596 | > 21.5 | > 100 | > 47.3 | > 21.3 | > 100 | 2.13 | > 100 | 0.342 | 0.73 | > 100 | 0.222 | 0.465 | 2.2 | 0.395 | 0.368 | 0.396 | 0.402 | 3.64 |
| O=[N+]([O-])c1ccccc1N/N=C\c1c[nH]c2ccccc12 | 98 | > 64.9 | > 93.1 | > 100 | > 100 | > 100 | 24.2 | > 100 | > 100 | 22.4 | 8.81 | > 47.6 | 8.18 | 18.8 | 17.8 | 27.6 | > 21.5 | 10.6 | 71.4 | > 100 |
| CC(C)(C)C(=O)OCOP(=O)(OCOC(=O)C(C)(C)C)C1CC(O)N(O)C1=O (stereo unspecified) | > 100 | > 100 | > 100 | > 100 | > 100 | 8.63 | 44.1 | > 100 | 6.44 | 25.8 | 3.35 | > 100 | 9.79 | 3.68 | 17.5 | 6.7 | 2.96 | 3.58 | 21.5 | 2.38 |
| Cc1ccc(C(SCC(N)C(=O)O)(c2ccc(C)cc2)c2ccc(C)cc2)cc1 (stereo unspecified) | 15.3 | 7.39 | 30.1 | > 48.3 | 5.59 | 20.5 | 16.8 | 14.7 | 22.7 | 1 | 7.16 | 20.2 | 2.22 | 4.93 | 11.3 | 2.45 | 3.33 | 1.71 | 0.907 | 7.47 |
| Cn1cc(C2=C(c3cn(C)c4c([N+](=O)[O-])cccc34)C(=O)NC2=O)c2ccccc21 | > 25 | > 25 | > 25 | > 25 | > 25 | > 25 | > 25 | > 25 | > 25 | > 25 | > 25 | > 25 | > 25 | > 25 | > 25 | > 25 | > 25 | > 25 | > 25 | > 25 |
| Nc1nc(OCc2cc(Br)cs2)c2[nH]cnc2n1 | 57.8 | > 100 | > 100 | > 100 | > 100 | 63.9 | > 100 | 39.6 | > 100 | 21.1 | 25.3 | 98.1 | 28.1 | 22.2 | 24.9 | 33 | 15.7 | 28.8 | 15.9 | 29.3 |
| Cc1ccccc1-n1ncc(C(=O)c2ccccc2)c1N | > 25 | > 25 | > 25 | > 25 | > 25 | > 25 | > 25 | > 25 | > 25 | > 25 | > 25 | > 25 | > 25 | > 25 | > 25 | > 25 | > 25 | > 25 | > 25 | > 25 |
| CCCCCCCCN(CCCCCCCC)CCCCCCNc1cc(OC)cc2cccnc12 | 28.8 | 4.09 | 28.4 | 19.7 | 4.52 | 28 | 27 | 21.1 | 27.1 | 15.3 | 3.79 | 13.5 | 2.01 | 14.6 | 5.62 | 2.1 | 14.7 | 11.9 | 8.53 | 13.6 |
| CS(=O)(=O)Nc1ccc(-c2cc(-c3ccccc3)cc(C(N)=O)c2N)cc1 | > 25 | > 25 | > 25 | > 25 | > 25 | > 25 | > 25 | > 25 | > 25 | > 25 | > 25 | > 25 | > 23.8 | > 25 | > 21.6 | > 25 | > 25 | > 25 | 15.6 | > 25 |
| CCCCCCCCCCCCCC1=NCCN1CCO | 18.3 | 6.48 | 11.2 | 39.8 | 15.7 | 31.8 | 4.95 | 11.2 | 4.02 | 7.04 |  |  | 2.73 | 5.17 | 7.23 | 3.88 | 13.4 | 2.1 | 3.26 | 1.99 |
| C=CC(C1=CC(=O)C(OC)=CC1=O)c1ccccc1 (stereo unspecified) | 42.2 | 31.2 | 28.4 | 30.1 | 30.2 | 29.9 | 30 | 30 | 29.1 |  |  | 31.7 |  |  |  |  |  |  |  |  |
